The values that follow come from article PMC11345769, “(SiFA)SeFe: A Hydrophilic Silicon-Based Fluoride Acceptor Enabling Versatile Peptidic Radiohybrid Tracers” (Journal of medicinal chemistry, 2024).

A short description of the data set: stability in human serum (radio-RP-HPLC). As to conditions: 37 °C; for Intact tracer in human serum, 24 h: n=3; for remaining at 24 h, 25 MBq/mL: human, serum, n=3, read-out: Intact tracer in human serum, 24 h. It counts as in vitro ADME. As to the method:
Stability studies in human serum were also performed by incubating the ^18F-labeled ligands [^18F][^natGa]Ga-(SiFA)-SeFe-rhTATE1, [^18F][^natGa]Ga-(SiFA)SeFe-rhTATE2, [^18F][^natLu]Lu-(SiFA)SeFe-rhTATE3 and [^18F][^natLu]Lu-(SiFA)BA-rhTATE3 (for 1 h), as well as the ^177Lu-labeled ligands [^177Lu]Lu-(SiFA)SeFe-rhTATE3 and [^177Lu]Lu-(SiFA)BA-rhTATE3 for 1 and 24 h at 37 °C (Figure 3D). Afterward, the samples were analyzed for the intact tracer by radio-RP-HPLC (see SI, Table S4).
5 MBq of the respective ^18F-/^177Lu-labeled compound was added to 200 μL of human serum (from a healthy volunteer) and incubated at 37 °C for 1 h. After the addition of 50 vol % of cold ethanol and 150 vol % of cold MeCN, centrifugation was performed at 13.000 rpm for 20 min. The supernatant was decanted and centrifuged at 13.000 rpm for 10 min in a centrifuge tube with a 0.45 μm cellulose acetate filter. […] of the remaining filtrate was injected into RP-HPLC and the number of intact radioligand was quantified.

With `C[C@@H](O)[C@H](NC(=O)[C@@H]1CSSC[C@H](NC(=O)[C@@H](Cc2ccccc2)NC(=O)COCCOCCNC(=O)[C@@H](CNC(=O)CN2CCN(CC(=O)O)CCN(CC(=O)O)CCN(CC(=O)O)CC2)NC(=O)COCCOCCNC(=O)c2ccc([Si](F)(C(C)(C)C)C(C)(C)C)cc2)C(=O)N[C@@H](Cc2ccc(O)cc2)C(=O)N[C@H](Cc2c[nH]c3ccccc23)C(=O)N[C@@H](CCCCN)C(=O)N[C@@H]([C@@H](C)O)C(=O)N1)C(=O)O` [[177Lu]Lu-(SiFA)BA-rhTATE3, metal not drawn], the “Intact tracer in human serum, 24 h” value is 60 ± 1.0% and the remaining at 24 h, 25 MBq/mL came to 60%.
As for `C[C@@H](O)[C@H](NC(=O)[C@@H]1CSSC[C@H](NC(=O)[C@@H](Cc2ccccc2)NC(=O)COCCOCCNC(=O)[C@@H](CNC(=O)CN2CCN(CC(=O)O)CCN(CC(=O)O)CCN(CC(=O)O)CC2)NC(=O)COCCOCCNC(=O)c2cc(CN)cc([Si](F)(C(C)(C)C)C(C)(C)C)c2)C(=O)N[C@@H](Cc2ccc(O)cc2)C(=O)N[C@H](Cc2c[nH]c3ccccc23)C(=O)N[C@@H](CCCCN)C(=O)N[C@@H]([C@@H](C)O)C(=O)N1)C(=O)O` [[177Lu]Lu-(SiFA)SeFe-rhTATE3, metal not drawn], the “Intact tracer in human serum, 24 h” value worked out at 94 ± 3.0% and the remaining at 24 h, 25 MBq/mL came out at 94%.
